Assay results published in patent US20260008762A1, “CANNABINOID ACIDS CRYSTALLINE FORMS, METHODS OF PRODUCING, AND USES THEREOF” (priority 2022, published 2026).

Tests used:
[1] = Thermogravimetric analysis (TGA) of crystalline form; format: physicochemical; conditions: crystalline single component form, dry nitrogen flow
Procedure: Thermal gravimetric analysis (TGA) was carried out using a TA instruments 2910 under dry nitrogen flow (30 mL/min for both the furnace and the balance). For a typical experiment, 5-10 mg of solid material was placed into the pan and was allowed to equilibrate at room temperature under nitrogen for approximately 5 minutes prior to the start of each experiment to ensure a stable baseline. A heating rate of 1° C./min or 5° C./min was utilized.

[2] = target: SARS-CoV-2 spike protein S1 C-terminal domain (Severe acute respiratory syndrome coronavirus 2, UniProt P0DTC2); conditions: can inhibit the virus' ability to enter new host cells; cited from earlier work
[3] = compared with THCa under similar conditions; cited from earlier work

| Structure (SMILES) | TGA degradation onset [1] | binding to SARS-CoV-2 spike protein S1 C-terminal domain [2] | rate of decarboxylation [3] |
| --- | --- | --- | --- |
| C=C(C)[C@@H]1CCC(C)=C[C@H]1c1c(O)cc(CCCCC)c(C(=O)O)c1O [CBDa, cannabidiolic acid] | about 150 °C | found to bind to the SARS-CoV-2 spike protein S1 C-terminal domain | decarboxylates at a faster rate than THCa |
| CCCCCc1cc(O)c(C/C=C(\C)CCC=C(C)C)c(O)c1C(=O)O [CBGa, cannabigerolic acid] | about 115 °C | found to bind to the SARS-CoV-2 spike protein S1 C-terminal domain |  |
| CCCCCc1cc2c(c(O)c1C(=O)O)[C@@H]1C=C(C)CC[C@H]1C(C)(C)O2 [THCa, tetrahydrocannabinolic acid] | about 125 °C |  |  |
